In data set [1] the target is T1, human histamine H3 receptor (Homo sapiens, UniProt Q9Y5N1).
T1 construct: expressed in transfected cells; membranes prepared
Put plainly: [3H]-N-methylhistamine binding to membranes of H3 receptor-expressing SK-N-MC cells. Particulars: 0.8 nM [3H]-N-methylhistamine, 45 minutes at 25° C., SK-N-MC cell membranes; KI from IC50 with KD 800 pM. Here is the method:
In the present invention receptor binding was determined using the human histamine H3 receptor (See Lovenberg et al Mol. Pharmacol. 1999, 1107). Screening using the human receptor is particularly important for the identification of new therapies for the treatment of human disease. Conventional binding assays for example are determined using rat synaptosomes (Garbarg et al J. Pharmacol. Exp. Ther. 1992, 263, 304), rat cortical membranes (West et al Mol. Pharmacol. 1990, 610), and guinea pig brain (Korte et al Biochem. Biophys. Res. Commun. 1990, 978). Only limited studies have been performed previously using human tissue but these allude to significant differences in the pharmacology of rodent and primate receptors (West et al Eur. J. Pharmacol. 1999, 233).
A 10 cm tissue culture dish with a confluent monolayer of SK-N-MC cells was split two days prior to transfection. Using sterile technique the media was removed and the cells were detached from the dish by the addition of trypsin. One fifth of the cells were then placed onto a new 10 cm dish. Cells were grown in a 37° C. incubator with 5% CO2 in Minimal Essential Media Eagle with 10% Fetal Bovine Serum. After two days cells were approximately 80% confluent. These were removed from the dish with trypsin and pelleted in a clinical centrifuge. The pellet was then re-suspended in 400 μL complete media and transferred to an electroporation cuvette with a 0.4 cm gap between the electrodes (Bio-Rad #165-2088). One microgram supercoiled H3 receptor CDNA was added to the cells and mixed. The voltage for the electroporation was set at 0.25 kV, the capacitance is set at 960 μF.
After electroporation the cells were diluted into 10 mL complete media and plated onto four 10 cm dishes. Due to the variability in the efficiency of electroporation, four different concentrations of cells were plated. The ratios used were: 1:20, 1:10, and 1:5, with the remainder of the cells being added to the fourth dish. The cells were allowed to recover for 24 hours before adding the selection media (complete media with 600 μg/ml G418). After 10 days dishes were analyzed for surviving colonies of cells. Dishes with well-isolated colonies were used. Cells from individual colonies were isolated and tested. SK-N-MC cells were used because they give efficient coupling for inhibition of adenylate cyclase. The clones that gave the most robust inhibition of adenylate cyclase in response to histamine were used for further study.
Cell pellets from histamine H3 receptor-expressing SK-N-MC cells were homogenized in 20 mM TrisHCl/0.5 mM EDTA. Supernatants from a 800 g spin were collected, reccentrifuged at 30,000 g for 30 minutes. Pellets were rehomogenized in 50 mM Tris/5 mM EDTA (pH 7.4). Membranes were incubated with 0.8 nM [^3H]-N-methylhistamine plus/minus test compounds for 45 minutes at 25° C. and harvested by rapid filtration over GF/C glass fiber filters (pretreated with 0.3% polyethylenimine) followed by four washes with ice cold buffer. Filters were dried, added to 4 mL scintillation cocktail and then counted on a liquid scintillation counter. Non-specific binding was defined with 10 μM histamine according to Chen and Prusoff, Biochem. Pharmacol. 1973, 22:3099. KI values were calculated based on a KD of 800 pM and a ligand concentration ([L]) of 800 pM according to the formula: […]
KI values are provided in the examples above.

This passage reports Ki and melting point results from US6436939B2, “Method for using 2-aryloxyalkylaminobenzoxazoles and 2-aryloxyalkylaminobenzothiazoles as H3 antagonists” (Ortho-McNeil Pharmaceutical, Inc., priority 2000, dated 2002).

Where a name gives a salt, the structure may show the parent alone.

T1 sequence (Q9Y5N1 whole entry): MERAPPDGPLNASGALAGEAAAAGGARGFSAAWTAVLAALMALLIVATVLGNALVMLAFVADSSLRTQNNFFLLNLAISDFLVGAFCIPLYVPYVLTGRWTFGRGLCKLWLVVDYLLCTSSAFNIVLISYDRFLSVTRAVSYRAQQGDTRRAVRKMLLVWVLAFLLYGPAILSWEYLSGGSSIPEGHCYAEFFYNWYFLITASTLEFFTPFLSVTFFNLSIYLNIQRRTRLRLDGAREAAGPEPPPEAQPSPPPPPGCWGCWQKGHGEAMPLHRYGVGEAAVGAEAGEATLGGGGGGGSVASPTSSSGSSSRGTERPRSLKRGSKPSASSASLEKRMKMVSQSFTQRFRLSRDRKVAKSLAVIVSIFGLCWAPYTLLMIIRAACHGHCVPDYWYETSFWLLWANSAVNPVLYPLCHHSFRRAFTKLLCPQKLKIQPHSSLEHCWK

Turning to `CCCN(CCC)CCCOc1ccc(-c2nc3ccccc3s2)cc1` [Example 11, 2-(4-Dipropylaminopropoxyphenyl)benzothiazole], in data set [1], the Ki was found to be 0.173 µM. Still for that read-out and setting: with `C(=C\c1nc2ccccc2o1)/c1ccc(OCCCCN2CCCC2)cc1` [Example 9, (E)-2-[2-(4-Pyrrolinobutoxyphenyl)ethenyl]benzoxazole] the figure was 0.017 µM. In turn, `C(=C\c1nc2ccccc2s1)/c1ccc(OCCCN2CCCCC2)cc1` (as salt: HCl) [Example 3, (E)-2-[2-(4-Piperidinopropoxyphenyl)ethenyl]benzothiazole] returned a melting point of 215 to 217 °C. In turn, `CCCN(CCC)CCCCOc1c(C)cc(/C=C/c2nc3ccccc3s2)cc1C` [Example 12, (E)-2-[2-(3,5-Dimethyl-4-dipropylaminobutoxyphenyl)ethenyl]benzothiazole] yielded a Ki in data set [1] of 1 µM. Regarding `C(=C\c1nc2ccccc2s1)/c1ccc(OCCCN2CCCCC2)cc1` [Example 3, (E)-2-[2-(4-Piperidinopropoxyphenyl)ethenyl]benzothiazole], the inhibitory constant (Ki) in data set [1] was found to be 0.015 µM.

Take `C(=C\c1nc2ccccc2o1)/c1ccc(OCCCN2CCCCC2)cc1` (as salt: HCl) [Example 4, (E)-2-[2-[4-(3-Piperidinopropoxy)phenyl]ethenyl]benzoxazole]: the melting point was in the range of 127 to 128 °C. In data set [1], `CCN(CC)CCCOc1ccc(/C=C/c2nc3ccccc3o2)cc1` [Example 8, (E)-2-[2-(4-Diethylaminopropoxyphenyl)ethenyl]benzoxazole] registered a Ki of 0.031 µM. Take `CCCN(CCC)CCCOc1ccc(-c2nc3ccccc3s2)cc1` (as salt: HCl) [Example 11, 2-(4-Dipropylaminopropoxyphenyl)benzothiazole]: the melting point is 142 to 143 °C. `CCN(CC)CCCCOc1ccc(/C=C/c2nc3ccccc3o2)cc1` (as salt: HCl) [Example 7, (E)-2-[2-(4-Diethylaminobutoxyphenyl)ethenyl]benzoxazole]: the melting point is 219 to 220 °C. As for `C(=C\c1nc2ccccc2o1)/c1ccc(OCCCN2CCCCC2)cc1` [Example 4, (E)-2-[2-[4-(3-Piperidinopropoxy)phenyl]ethenyl]benzoxazole], the affinity in data set [1], expressed as Ki, was 0.013 µM.

In data set [1], `C(=C\c1nc2ccccc2o1)/c1ccc(OCCCCN2CCCCC2)cc1` [Example 6, (E)-2-[2-(4-Piperidinobutoxyphenyl)ethenyl]benzoxazole] showed a Ki of 0.034 µM. In turn, `CCN(CC)CCCOc1ccc(/C=C/c2nc3ccccc3o2)cc1` (as salt: HCl) [Example 8, (E)-2-[2-(4-Diethylaminopropoxyphenyl)ethenyl]benzoxazole] displayed a melting point of 225 to 226 °C.

Take `C(=C\c1nc2ccccc2o1)/c1ccc(OCCCCN2CCCC2)cc1` (as salt: HCl) [Example 9, (E)-2-[2-(4-Pyrrolinobutoxyphenyl)ethenyl]benzoxazole]: the melting point is 229 to 232 °C.

Regarding `CCN(CC)CCCCOc1ccc(/C=C/c2nc3ccccc3o2)cc1` [Example 7, (E)-2-[2-(4-Diethylaminobutoxyphenyl)ethenyl]benzoxazole], the Ki in data set [1] amounted to 0.048 µM.

In turn, `C(=C\c1nc2ccccc2o1)/c1ccc(OCCCCN2CCCCC2)cc1` (as salt: HCl) [Example 6, (E)-2-[2-(4-Piperidinobutoxyphenyl)ethenyl]benzoxazole] came in with a melting point of 230 to 232 °C.

Usually Ki stands for a measure of affinity in units of concentration, obtained from inhibition or displacement. A lower Ki goes with tighter binding. What is called melting point is the temperature, or range, at which the solid turns liquid.
